Data on six molecules can be found in ChEMBL document CHEMBL1201862, “PubChem BioAssay data set” (2004).

Some test systems named below: IGROV-1; T47D; HCT-15; MDA-N; UACC-62; TK-10; OVCAR-5; A498; MOLT-4; Malme-3M; HOP-62; UACC-257; SF-295; SW-620; OVCAR-8; SK-OV-3; NCI-H23; HT-29; 786-0; SN12C.
Common to all, as to assay: NCI tumour cell line growth inhibition, 48 h

SMILES strings stand for the structures.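 Interpolation was linear, between the two tested concentrations surrounding the appropriate level; five concentrations were tested over 48 hours in 96-well plates. At the GI50, growth is halved.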 Activity calls are given as the source filed them. No stated cut-off is given here; in the data, active = GI50 up to about 1.1 µM and inactive = higher.

With `CCOC(=O)c1cnn2c1ncc1c(=O)n(NC(N)=O)ccc12`, the GI50 was > 100 µM (inactive) in the experiment on IGROV-1; > 100 µM (inactive) in the experiment with T47D; > 100 µM with HCT-15; > 100 µM (inactive) in the experiment on MDA-N; > 100 µM (inactive) in the experiment on UACC-62; > 100 µM (inactive) in the experiment with TK-10. The GI50 in the experiment on OVCAR-5, in the experiment on A498, with MOLT-4, with Malme-3M, in the experiment with HOP-62 and in the experiment on UACC-257 was > 100 µM (inactive) each time. Besides, the GI50 in the experiment on SF-295, with SW-620, in the experiment with OVCAR-8, in the experiment on SK-OV-3, in the experiment with NCI-H23 and in the experiment on HT-29 was > 100 µM (inactive) each time. The GI50 with 786-0 and in the experiment with SN12C was > 100 µM (inactive) throughout.

Consider `Cc1nnc(S(=O)(=O)c2ccc(/N=N/c3c(N)nc(N)nc3N)cc2)s1`, for which the GI50 in the experiment with IGROV-1 is > 100 µM (inactive); with T47D, > 100 µM (inactive); with HCT-15, > 100 µM; in the experiment on MDA-N it was > 100 µM (inactive); in the experiment on UACC-62, > 100 µM (inactive); in the experiment with TK-10, > 100 µM (inactive). The GI50 in the experiment with OVCAR-5, with A498, in the experiment with MOLT-4, with Malme-3M, in the experiment with HOP-62 and in the experiment with UACC-257 was > 100 µM (inactive) throughout. Besides, the GI50 in the experiment on SF-295, in the experiment on SW-620, in the experiment with OVCAR-8, with SK-OV-3, in the experiment with NCI-H23 and in the experiment on HT-29 was > 100 µM (inactive) in each case. Also, the GI50 in the experiment on 786-0 and in the experiment with SN12C was > 100 µM (inactive) throughout.

Turning to `CC(C)c1ccc(/C(C(=O)O)=C(\O)C(=O)O)cc1`, the GI50 in the experiment on IGROV-1 is > 100 µM (inactive); with T47D, > 100 µM (inactive); in the experiment on HCT-15, > 100 µM; in the experiment on MDA-N, > 100 µM (inactive); with UACC-62, > 100 µM (inactive); in the experiment with TK-10, > 100 µM (inactive). In addition, the GI50 in the experiment on OVCAR-5, with A498, with MOLT-4, with Malme-3M, in the experiment with HOP-62 and in the experiment on UACC-257 was > 100 µM (inactive) throughout. For the same molecule, the GI50 with SF-295, in the experiment with SW-620, in the experiment with OVCAR-8, in the experiment with SK-OV-3, in the experiment on NCI-H23 and in the experiment on HT-29 was > 100 µM (inactive) throughout. Further, the GI50 in the experiment on 786-0 and with SN12C was > 100 µM (inactive) in each case.

Consider `O=C(CCc1ccccc1)On1c(-c2ccccc2)nc2ccccc2c1=S`, for which the GI50 with IGROV-1 is 0.515 µM (active); in the experiment on T47D it was 6.79 µM (inactive); in the experiment with HCT-15, 2.32 µM; in the experiment with MDA-N, 12.9 µM (inactive); with UACC-62, 3.94 µM (inactive); with TK-10, 18.9 µM (inactive). For the same molecule, the GI50 in the experiment with OVCAR-5 was 18.9 µM (inactive); with A498 it was 65.8 µM (inactive); with MOLT-4, 0.455 µM (active); in the experiment on Malme-3M it was 3.61 µM (inactive); in the experiment on HOP-62, 3.66 µM (inactive); in the experiment with UACC-257, 22.9 µM (inactive). For the same molecule, the GI50 in the experiment with SF-295 is 3.99 µM (inactive); in the experiment with SW-620, 8.26 µM (inactive); with OVCAR-8, 4.44 µM (inactive); in the experiment on SK-OV-3, 6.84 µM (inactive); with NCI-H23, 4.3 µM (inactive); with HT-29, 3.85 µM (inactive). For the same molecule, the results for the GI50 in the experiment on 786-0 and in the experiment on SN12C were 2.06 µM (inactive) and 11.9 µM (inactive), respectively.

For `CCOC(=O)/C=C(/C(=O)OCC)n1c(=O)c(C)cn(C2CC(N=[N+]=[N-])C(CO)O2)c1=O` (stereo not given), the GI50 is 37.3 µM (inactive) with IGROV-1; 27.2 µM (inactive) with T47D; 29.7 µM in the experiment on HCT-15; 43 µM (inactive) in the experiment with MDA-N; 85.9 µM (inactive) in the experiment with UACC-62; 37.2 µM (inactive) in the experiment on TK-10. Further, the GI50 in the experiment on OVCAR-5 is > 100 µM (inactive); in the experiment on A498, 44.1 µM (inactive); in the experiment on MOLT-4, < 0.01 µM (active); in the experiment with Malme-3M it was 54.3 µM (inactive); in the experiment on HOP-62, 59.7 µM (inactive); with UACC-257, 22.1 µM (inactive). The GI50 with SF-295 is 79.6 µM (inactive); in the experiment on SW-620, 17 µM (inactive); with OVCAR-8, 28.9 µM (inactive); in the experiment on SK-OV-3, > 100 µM (inactive); with NCI-H23, 34 µM (inactive); with HT-29, 35.7 µM (inactive). Also, the GI50 in the experiment on 786-0 was 25.4 µM (inactive); with SN12C, 37.2 µM (inactive).

For `O=C(O)/C(=C\c1ccccc1)Cc1ccccc1`, the GI50 is > 100 µM (inactive) in the experiment with IGROV-1; > 100 µM (inactive) in the experiment with T47D; > 100 µM with HCT-15; > 100 µM (inactive) in the experiment with MDA-N; > 100 µM (inactive) in the experiment on UACC-62; > 100 µM (inactive) in the experiment with TK-10. The GI50 in the experiment on OVCAR-5, in the experiment with A498, in the experiment with MOLT-4, in the experiment on Malme-3M, in the experiment with HOP-62 and with UACC-257 was > 100 µM (inactive) each time. In addition, the GI50 with SF-295, in the experiment on SW-620, in the experiment with OVCAR-8, in the experiment on SK-OV-3, in the experiment with NCI-H23 and with HT-29 was > 100 µM (inactive) throughout. For the same molecule, the GI50 in the experiment on 786-0 and in the experiment with SN12C was > 100 µM (inactive) each time.
